Test results taken from patent US6287840A (Axys Pharmaceuticals, Inc., priority 1999, dated 2001).
Like-named read-outs stand apart in the source and are kept apart here.

Legend:
Cloned cathepsin S = biological target: T1, Cloned cathepsin S (Homo sapiens, UniProt P25774); assay: Inhibition of cathepsin S, Z-Val-Val-Arg-AMC fluorescence progress curves; type: biochemical; conditions: for Ki: corrected for substrate; for k/KI (kirr/KI): values without asterisk, 25° C., pH 6.5
T1 construct: made in house
Procedure, shortened: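 Fluorescence (380 nm excitation, 460 nm emission) was followed after adding sub-nM enzyme to pH 6.5 phosphate buffer with DTT, EDTA, Triton, 10 μM Z-VVR-AMC and 30-0.001 μM inhibitor at 25 °C. Fitted kobs values gave apparent kobs/[I]; for some, double-reciprocal plots gave kirr, KI and kirr/KI, KI corrected by 1+[S]/Km.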

T. cruzi = T. cruzi infected irradiated J774 cells; type: cell-based; set-up: dose or concentration left out as unconfirmed; conditions: thereafter without inhibitor; compounds listed in decreasing order of effectiveness
Procedure: Irradiated J774 cells were infected with T. cruzi and simultaneously treated with […] of peptidyl vinyl derivatives for 5 days; thereafter without inhibitor. The following compounds were effective in decreasing order: Mu-Phe-ArgVSPh, Boc-Tyr(I2)-HphVSPh, Mu-Phe-VaIVSPh, Boc-Tic-HphVSPh, Mu-Phe-Ser(OBzl)VSPh, Mu-Leu-HphVSPh, Mu-Tyr(I2)-HphVSPh, Mu-Phe-LysVSPh, Mu-Tic-HphVSPh.

Female Lewis rats = assay: Mycobacterium butyricum induced arthritis in rats, compound in chow, 28 days; type: in vivo, rat
Procedure: At day zero, Female Lewis rats (5/group), 5 weeks old, were given intradermal injection into the base of the tail of Mycobacterium butyricum in 0.1 ml of light mineral oil. The animals were provided Teklad (4%) rat chow mixed with (treated groups) or without compound (control group) and water ad libilum. The compounds used were Mu-Phe-HphVSPh, Mu-Leu-HphVSPh, Mu-Tyr-HphVSPh, Mu-Phe-Lys(ε-Z)VSPh, Mu-Phe-LysVSPh-HBr. The compounds were given to three groups at 3, 10, and 30 mg/kg/day, respectively. The following parameters were noted: biweekly weights and biweekly joint evaluations by the following scoring system: paw swelling 0=no edema, 1=slight edema of small digital joints, 2=edema of the digital joints and foot pad, 3=gross edema of the entire foot pad below that ankle or elbow, 4=gross edema of the entire foot pad including the ankle and elbow joint Erythema was scored as: 0=normal, 1=pink, 2=red, 3=deep violaceous. The evaluators were blinded as to treatment groups.
After 28 days the animals were killed and the hind paws and knees were removed and fixed in 4% paraformaldehyde. […] Joint histopathology scores were calculated by the following method: two sections of each joint were read for synovial cell proliferation, cartilage erosion, bone erosion, fibroproliferative pannus, diffuse inflammatory synovitis, and synovial vasculitis: 0=normal, 1=mild, 2=moderate, 3=and severe. […]

P. carinii = assay: Growth of P. carinii in vitro; type: cell-based; conditions: 10 mM each
Procedure: Mu-Leu-HphVSPh and Mu-Phe-LysVSPh.HBr were evaluated for their effects on the growth of P. carinii in vitro, according to the procedure of M. S. Bartlett et al. [Antimicrotubule Benzimidazoles Inhibit In Vitro Growth of P. carinii, M. S. Bartlett, T. D. Edlind, M. M. Durkin, M. M. Shaw, S. F. Queener, and J. W. Smith, (1992) Antimicrobial Agents and Chemotherapy, 36, 779-782; Antimicrobial susceptibility of P. carinii in culture, M. S. Bartlett, R. Eichholtz, and J. W. Smith (1985) Diagn. Microbiol. Infect. Dis.; 3, 381-387. Mu-Leu-HphVSPh and Mu-Phe-LysVSPh.HBr (10 mM each) inhibited the growth of P. carinii 64% and 50% respectively.

calpain = assay: Inhibition (inactivation) of calpain, Suc-Leu-Tyr-AMC; type: biochemical; conditions: values marked * (or %); pH 7.5, 5 mM CaCl2, 25° C.
Procedure: The inhibitors were tested against calpain at 1 or 2% as for the other enzymes. The reaction conditions were 50 mM Tris, pH 7.5, 5 mM CaCl2, 2.5 mM DTT, assayed at 25° C. The substrate was 100 μM Suc-Leu-Tyr-AMC.

T1 sequence (P25774 115-331): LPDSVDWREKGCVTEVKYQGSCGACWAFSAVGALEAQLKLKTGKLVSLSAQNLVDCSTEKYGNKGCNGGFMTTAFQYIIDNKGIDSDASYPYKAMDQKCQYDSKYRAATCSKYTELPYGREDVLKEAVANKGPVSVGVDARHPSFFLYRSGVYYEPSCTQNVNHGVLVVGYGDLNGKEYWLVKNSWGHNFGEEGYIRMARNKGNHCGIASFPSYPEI

Row | Structure (SMILES) | kirr (Cloned cathepsin S) | Ki (Cloned cathepsin S) | k/KI (kirr/KI) (Cloned cathepsin S) | effectiveness against T. cruzi in J774 cells (T. cruzi) | bone and cartilage destruction (Female Lewis rats; high dose) | inhibition of the growth of P. carinii (P. carinii) | Ki (Cloned cathepsin S; listed as Mu-Phe-Hph-VSPh) | kirr (Cloned cathepsin S; listed as Mu-Phe-Hph-VSPh) | k/KI (kirr/KI) (Cloned cathepsin S; listed as Mu-Phe-Hph-VSPh) | kobs /[I]* (calpain) | effect on all scores (paw swelling, erythema, joint histopathology) (Female Lewis rats; 3, 10, and 30 mg/kg/day in chow, 28 days)
1 | CC(C)C[C@H](NC(=O)N1CCOCC1)C(=O)N[C@H](/C=C/S(=O)(=O)c1ccccc1)CCc1ccccc1 [Mu-Leu-HphVSPh, (S)-(E)-3-(4-morpholinecarbonylleucyl)amino-5-phenyl-1-phenylsulfonyl-1-pentene] | 0.16 s⁻¹ | 5.9 nM | 26,300,000 M^-1 sec^-1 | effective | reduction in bone and cartilage destruction | 64% |  |  |  |  | 
2 | O=C(N[C@H](/C=C/S(=O)(=O)c1ccccc1)CCc1ccccc1)C(Cc1ccccc1)NC(=O)N1CCOCC1 (stereo partly drawn) [Mu-Phe-HphVSPh, (S)-(E)-3-(4-morpholinecarbonyl-phenylalanyl)amino-5-phenyl-1-phenylsulfonyl-1-pentene] | 0.085 s⁻¹ | 11 nM | 7,700,000 M^-1 sec^-1 |  |  |  | 23 nM | 0.15 s⁻¹ | 6,500,000 M^-1 sec^-1 | < 50 M⁻¹ s⁻¹ | dose dependent beneficial effect on all scores
